Source: paper PMC10388362, “Fluorescent Ligands Enable Target Engagement Studies for the Intracellular Allosteric Binding Site of the Chemokine Receptor CXCR2” (Journal of Medicinal Chemistry, 2023)

Experiments:
CXCR2 [1] = biological target: T1, CXCR2 (Homo sapiens, UniProt P25025); test: Membrane-based NanoBRET competition kinetic assay with 9a; details: kinetic competitive binding with 9a (50 nM), CXCR2_Nluc membranes; read-out: residence time tr
T1 construct: Promega pNLF1-C (Nluc) #CXCR20TN00; host or cells: HEK293T, transient transfection (PEI)
T1 sequence (P25025 1-360): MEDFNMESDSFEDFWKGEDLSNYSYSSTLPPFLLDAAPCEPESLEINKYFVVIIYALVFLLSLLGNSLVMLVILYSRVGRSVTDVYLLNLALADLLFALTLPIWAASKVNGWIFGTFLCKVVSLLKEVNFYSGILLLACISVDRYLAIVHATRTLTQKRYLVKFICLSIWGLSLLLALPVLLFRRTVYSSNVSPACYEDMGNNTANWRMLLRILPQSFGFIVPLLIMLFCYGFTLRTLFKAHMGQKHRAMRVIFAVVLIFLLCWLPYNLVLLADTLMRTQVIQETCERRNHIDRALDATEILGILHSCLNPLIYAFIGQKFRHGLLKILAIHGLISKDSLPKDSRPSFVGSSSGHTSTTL
Experimental: 2.5 μL of a solution of the fluorescent ligand (9a) diluted in the assay buffer (final assay concentration: 50 nM) and 2.5 μL of a solution of the competing nonlabeled ligands (final assay concentrations: […]) or 3 for determining nonspecific binding (final assay concentration: 25 μM) in the assay buffer were transferred to a 384-well plate. […] Thereafter, 20 μL of the membrane preparation (2 μg total protein/well) was added and BRET ratios were measured with a CLARIOstar microplate reader using 620/10 and 475/30 nm emission filters over time. Specific BRET ratios were calculated as a difference of total and nonspecific binding. The obtained data were analyzed using the kinetics of the competitive binding algorithm in PRISM9.5 (GraphPad) to determine competition binding kinetics.

CXCR2 [2] = biological target: T1, CXCR2; test: Live cell NanoBRET competition binding with 9a; details: competition with 9a (50 nM), live HEK293T cells expressing CXCR2_Nluc
Experimental: HEK293T cells were transfected with the plasmid (5.5 μg) for CXCR2_Nluc using polyethylenimine (PEI) as transfection reagent (PEI/DNA ratio 3:1). After 24 h at 37 °C and 5% CO2, the cells were detached with DMEM and transferred to a white F-bottom 384-well plate (10,000 cells/well), which was coated with 5 μL/well poly-D-lysine (0.1 mg/mL, dissolved in water), and incubated for further 24 h at 37 °C and 5% CO2. Subsequently, the cells were washed with phosphate-buffered saline (Gibco DPBS, with CaCl2 and MgCl2). The assay medium (Gibco DMEM/F12, 15 mM HEPES, no phenol red supplemented with 5% FBS) was added and the cells were incubated at 37 °C for 30 min. […] To determine nonspecific binding, 5 μL of a solution of 3 dissolved in the assay medium (final assay concentration: 10 μM) were added.
Total, nonspecific and specific binding, which was calculated as a difference of total and nonspecific binding, were analyzed using the algorithms for one-site saturation binding in PRISM9.5 (GraphPad). To determine the inhibition constants (Ki) of the potential competitors, data were normalized to total and nonspecific binding and analyzed using the one-site-fit Ki equation in PRISM9.5 (GraphPad).

CXCR2 [3] = biological target: T1, CXCR2; test: Membrane-based NanoBRET competition assay with 9a; assay type: binding; details: competition with 9a (50 nM), CXCR2_Nluc membranes
Experimental: Then, 20 μL of the membrane preparation (diluted in assay buffer, 2 μg total protein/well) was added and the plates were incubated for 90 min at 37 °C. Subsequently, 5 μL of a furimazine solution (final assay dilution: 1:5000 in the assay buffer) was added to each well (final assay volume: 35 μL). […] To determine the inhibition constants (Ki) of the nonlabeled ligands, data were analyzed using the one-site-fit Ki equation in PRISM9.5 (GraphPad).

CXCR2 [4] = biological target: T1, CXCR2; test: Fluorescence microscopy, displacement of 9a in HEK293 cells stably expressing CXCR2; assay type: cell-based; details: 9a 500 nM
Experimental: For live cell microscopy, HEK293 cells stably expressing CXCR2 were seeded onto poly-D-lysine (PDL)-coated 8-well μ-slides (Ibidi) at a density of 1.5 × 10^5 cells per well and cultured overnight at 37 °C and 5% CO2. […] Afterward, the fluorescent CXCR2 ligand ((9a) final concentration 500 nM) was added for 60 min at 37 °C, and the cells were washed once with PBS before imaging. For immunostaining, the cells were first fixed with 4% paraformaldehyde solution, washed with PBS, and then blocked for 1 h with 10% goat serum and 1% fatty acid-free bovine serum albumin (BSA) in PBS at 37 °C. As primary antibody, anti-CXCR2 mouse IgG (R&D Systems, catalog # 48311, 1:100 in blocking solution) was added, and the cells were incubated for 1 h at 37 °C. After three washes with PBS, goat anti-mouse IgG (H+L) conjugated to FITC (Sigma-Aldrich, catalog # AP124F, 1:500 in blocking solution) was added for 1 h at 37 °C. The cells were again washed three times with PBS and counterstained with 4′,6-diamidin-2-phenylindole (DAPI) solution (0.1 μg/mL) for 15 min in the dark at room temperature, followed by three washes with PBS. […] Afterward, the fluorescent CXCR2 ligand ((9a) final concentration 500 nM) was added for 30 min at 37 °C and the cells were imaged. Microscopy was carried out on an AxioObserver.Z1 microscope (Carl Zeiss, Jena, Germany) equipped with an ApoTome imaging system and a Heating unit XL S using a Plan-Apochromat ×63/1.40 Oil objective (filter set 43 (red), 38 (green), 49 (blue)). Image processing and line scan analysis were performed with Zen blue Imaging software. The fluorescence intensity values were normalized to vehicle control.

## Cc1ccc([C@H](Nc2c(Nc3cccc(C(=O)N(C)C)c3O)c(=O)c2=O)C(C)(C)C)o1 [compound 3]
CXCR2 [1]
  residence time: 474 ± 59 min
CXCR2 [2]; read-out: Ki
  Ki: 0.011 nM
CXCR2 [2]; read-out: pKi (converted)
  Ki: 0.00933 nM
CXCR2 [3]; read-out: Ki
  Ki: 0.09 nM
CXCR2 [3]; read-out: pKi (converted)
  Ki: 0.0794 nM
CXCR2 [4]; fixed HEK293 cells stably expressing CXCR2, competitor 10 μM
  effect of preincubation on membrane-associated 9a fluorescence: virtually blunted all membrane-associated probe fluorescence
CXCR2 [4]; live cell imaging, HEK293 cells stably expressing CXCR2, competitor 10 μM
  effect of preincubation on membrane-based 9a fluorescence: very strong reduction in membrane-based fluorescence
